According to US20210030654A1, “ANTIOXIDANT COMPLEX AND COMPOSITION FOR FORMING SAME” (priority 2018, published 2021):

Tests used:
Solubility = assay type: physicochemical; details: powder introduced into physiological saline
Text: The simple mixture is not preferable for a preparation method of the antioxidant complex according to the inventive concept.

Human red blood cells = assay: CAP-e bioassay (cellular antioxidant protection assay of red blood cells); assay type: cell-based; details: AAPH-induced oxidative damage, FIGS. 3-5
Procedure: Cellular antioxidant protection (CAP-e) assay of red blood cells was used to evaluate the capacity of antioxidant complexes to protect cells from oxidative stress after the antioxidant complexes enter the cells.
Human red blood cells were treated for 20 minutes using the antioxidant complex serially diluted in physiological saline. During this incubation period, the antioxidant complexes that may pass through a cell membrane may enter the cells. After exposure of the red blood cells to the antioxidant complex which was tested twice for each dose of the antioxidant complex, the red blood cells were washed twice with PBS to remove the antioxidant complex that was not absorbed by the cells.
The red blood cells were loaded with an indicator dye DCF-DA that becomes fluorescent when oxidized, and then a peroxyl free radical generator AAPH was added thereto to induce oxidative damage to the cells. A relative fluorescence intensity of each cell culture was measured at 488 nanometers using a Tecan Spectrafluor plate reader (Tecan, Männedorf, Switzerland). A reference for oxidation at the cellular level was defined based on a low fluorescence intensity of untreated control cells (cells treated with PBS but not treated with a test product or AAPH). A positive control for cellular oxidative damage was defined as red blood cells exposed to AAPH alone under the absence of the antioxidant complex. […]

## O=C1c2c(O)cc(O)cc2O[C@H](c2ccc(O)c(O)c2)[C@H]1O [dihydroquercetin powder, dihydroquercetin]
Solubility
  solubility in physiological saline: almost completely insoluble
Human red blood cells
  intracellular antioxidant capacity / cell protective capacity in CAP-e analysis: did not exhibit the intracellular antioxidant capacity
